Test results published in paper PMC3257585 (Journal of Medicinal Chemistry, 2011).

Legend:
PIM1 = PIM1 (Homo sapiens, UniProt P11309); experiment: Thermal stability shift assay; type: binding; details: Tm shift assay
PDGFRa = PDGFRa (Homo sapiens, UniProt P16234); experiment: In vitro kinase selectivity panel; type: biochemical
FLT3 = biological target: T1, FLT3 (Homo sapiens, UniProt P36888); experiment: In vitro kinase selectivity panel; type: biochemical
T1 sequence (P36888 27-993): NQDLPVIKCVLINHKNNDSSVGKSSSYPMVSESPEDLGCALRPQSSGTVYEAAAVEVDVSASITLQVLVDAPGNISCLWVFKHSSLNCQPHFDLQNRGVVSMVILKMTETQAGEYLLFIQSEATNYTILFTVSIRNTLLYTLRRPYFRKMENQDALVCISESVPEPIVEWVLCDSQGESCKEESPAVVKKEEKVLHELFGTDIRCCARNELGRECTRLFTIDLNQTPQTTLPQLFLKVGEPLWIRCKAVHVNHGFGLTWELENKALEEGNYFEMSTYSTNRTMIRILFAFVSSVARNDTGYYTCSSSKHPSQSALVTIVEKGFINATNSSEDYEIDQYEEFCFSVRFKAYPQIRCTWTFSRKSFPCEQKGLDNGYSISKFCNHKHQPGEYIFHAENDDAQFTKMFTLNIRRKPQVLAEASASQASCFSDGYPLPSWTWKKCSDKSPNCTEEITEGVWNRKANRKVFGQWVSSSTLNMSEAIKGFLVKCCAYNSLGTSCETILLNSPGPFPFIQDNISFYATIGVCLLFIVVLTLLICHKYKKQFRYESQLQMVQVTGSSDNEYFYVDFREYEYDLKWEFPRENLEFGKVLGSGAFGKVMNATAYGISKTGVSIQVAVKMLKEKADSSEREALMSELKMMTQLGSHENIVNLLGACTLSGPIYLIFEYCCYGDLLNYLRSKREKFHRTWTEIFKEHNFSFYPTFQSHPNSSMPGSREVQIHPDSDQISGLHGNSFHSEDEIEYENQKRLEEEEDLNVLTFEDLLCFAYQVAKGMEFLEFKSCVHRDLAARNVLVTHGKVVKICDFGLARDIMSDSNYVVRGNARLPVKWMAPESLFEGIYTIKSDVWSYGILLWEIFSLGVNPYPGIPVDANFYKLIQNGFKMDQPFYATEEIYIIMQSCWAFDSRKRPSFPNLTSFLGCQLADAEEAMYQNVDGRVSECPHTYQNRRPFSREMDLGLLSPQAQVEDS

cKIT = cKIT (Homo sapiens, UniProt P10721); experiment: In vitro kinase selectivity panel; type: biochemical
Chain of cKIT (P10721 26-976): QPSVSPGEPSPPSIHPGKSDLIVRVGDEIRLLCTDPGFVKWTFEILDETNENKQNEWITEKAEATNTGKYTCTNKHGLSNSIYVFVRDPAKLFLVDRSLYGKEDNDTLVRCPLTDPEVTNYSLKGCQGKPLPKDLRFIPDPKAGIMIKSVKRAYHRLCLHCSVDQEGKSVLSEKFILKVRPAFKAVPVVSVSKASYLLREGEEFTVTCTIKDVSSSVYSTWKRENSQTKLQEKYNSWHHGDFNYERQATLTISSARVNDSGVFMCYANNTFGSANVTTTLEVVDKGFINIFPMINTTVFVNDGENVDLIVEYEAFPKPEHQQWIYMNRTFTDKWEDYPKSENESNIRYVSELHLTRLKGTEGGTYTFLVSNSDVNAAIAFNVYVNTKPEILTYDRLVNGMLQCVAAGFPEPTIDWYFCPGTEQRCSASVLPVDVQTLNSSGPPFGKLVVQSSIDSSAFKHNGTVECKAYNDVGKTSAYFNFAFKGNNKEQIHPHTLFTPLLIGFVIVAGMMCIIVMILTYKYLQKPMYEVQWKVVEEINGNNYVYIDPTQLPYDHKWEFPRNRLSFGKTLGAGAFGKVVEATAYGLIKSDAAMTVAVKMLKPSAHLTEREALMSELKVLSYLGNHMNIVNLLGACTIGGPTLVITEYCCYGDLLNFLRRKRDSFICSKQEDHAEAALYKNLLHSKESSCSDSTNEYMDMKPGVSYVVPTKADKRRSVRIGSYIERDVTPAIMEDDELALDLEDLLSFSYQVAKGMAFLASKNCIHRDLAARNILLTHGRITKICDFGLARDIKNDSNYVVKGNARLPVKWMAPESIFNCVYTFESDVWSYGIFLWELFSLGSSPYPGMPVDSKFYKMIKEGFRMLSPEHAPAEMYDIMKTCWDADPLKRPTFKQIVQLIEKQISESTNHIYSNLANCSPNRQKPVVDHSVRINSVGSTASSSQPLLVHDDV

[1] = test system: phosphorylation of 4E-BP1; experiment: Western blot of 4E-BP1 phosphorylation in MV4; type: cell-based, human; details: MV4;11 cells, 0–10 μM
BTKv2 = BTKv2 (Homo sapiens, UniProt Q06187); experiment: In vitro kinase selectivity panel; type: biochemical
Chain of BTKv2 (Q06187 whole entry): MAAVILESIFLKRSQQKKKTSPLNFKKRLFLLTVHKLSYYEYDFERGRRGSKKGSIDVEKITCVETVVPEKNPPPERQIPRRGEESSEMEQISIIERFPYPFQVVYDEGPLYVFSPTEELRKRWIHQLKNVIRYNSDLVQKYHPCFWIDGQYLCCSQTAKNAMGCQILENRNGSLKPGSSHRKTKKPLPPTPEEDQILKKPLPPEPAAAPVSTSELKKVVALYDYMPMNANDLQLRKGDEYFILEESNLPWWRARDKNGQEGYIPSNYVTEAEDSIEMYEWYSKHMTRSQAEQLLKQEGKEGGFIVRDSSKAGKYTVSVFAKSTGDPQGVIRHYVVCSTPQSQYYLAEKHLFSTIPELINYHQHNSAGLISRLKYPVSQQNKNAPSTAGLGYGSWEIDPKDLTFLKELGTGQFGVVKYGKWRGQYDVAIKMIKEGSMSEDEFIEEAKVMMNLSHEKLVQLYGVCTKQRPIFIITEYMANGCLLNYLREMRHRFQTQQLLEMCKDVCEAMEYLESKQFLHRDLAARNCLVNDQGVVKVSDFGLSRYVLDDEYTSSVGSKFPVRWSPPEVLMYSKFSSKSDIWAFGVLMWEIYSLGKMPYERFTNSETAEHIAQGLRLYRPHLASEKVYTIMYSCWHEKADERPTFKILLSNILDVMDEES

HER4 = HER4 (Homo sapiens, UniProt Q15303); experiment: In vitro kinase selectivity panel; type: biochemical
Chain of HER4 (Q15303 26-1308): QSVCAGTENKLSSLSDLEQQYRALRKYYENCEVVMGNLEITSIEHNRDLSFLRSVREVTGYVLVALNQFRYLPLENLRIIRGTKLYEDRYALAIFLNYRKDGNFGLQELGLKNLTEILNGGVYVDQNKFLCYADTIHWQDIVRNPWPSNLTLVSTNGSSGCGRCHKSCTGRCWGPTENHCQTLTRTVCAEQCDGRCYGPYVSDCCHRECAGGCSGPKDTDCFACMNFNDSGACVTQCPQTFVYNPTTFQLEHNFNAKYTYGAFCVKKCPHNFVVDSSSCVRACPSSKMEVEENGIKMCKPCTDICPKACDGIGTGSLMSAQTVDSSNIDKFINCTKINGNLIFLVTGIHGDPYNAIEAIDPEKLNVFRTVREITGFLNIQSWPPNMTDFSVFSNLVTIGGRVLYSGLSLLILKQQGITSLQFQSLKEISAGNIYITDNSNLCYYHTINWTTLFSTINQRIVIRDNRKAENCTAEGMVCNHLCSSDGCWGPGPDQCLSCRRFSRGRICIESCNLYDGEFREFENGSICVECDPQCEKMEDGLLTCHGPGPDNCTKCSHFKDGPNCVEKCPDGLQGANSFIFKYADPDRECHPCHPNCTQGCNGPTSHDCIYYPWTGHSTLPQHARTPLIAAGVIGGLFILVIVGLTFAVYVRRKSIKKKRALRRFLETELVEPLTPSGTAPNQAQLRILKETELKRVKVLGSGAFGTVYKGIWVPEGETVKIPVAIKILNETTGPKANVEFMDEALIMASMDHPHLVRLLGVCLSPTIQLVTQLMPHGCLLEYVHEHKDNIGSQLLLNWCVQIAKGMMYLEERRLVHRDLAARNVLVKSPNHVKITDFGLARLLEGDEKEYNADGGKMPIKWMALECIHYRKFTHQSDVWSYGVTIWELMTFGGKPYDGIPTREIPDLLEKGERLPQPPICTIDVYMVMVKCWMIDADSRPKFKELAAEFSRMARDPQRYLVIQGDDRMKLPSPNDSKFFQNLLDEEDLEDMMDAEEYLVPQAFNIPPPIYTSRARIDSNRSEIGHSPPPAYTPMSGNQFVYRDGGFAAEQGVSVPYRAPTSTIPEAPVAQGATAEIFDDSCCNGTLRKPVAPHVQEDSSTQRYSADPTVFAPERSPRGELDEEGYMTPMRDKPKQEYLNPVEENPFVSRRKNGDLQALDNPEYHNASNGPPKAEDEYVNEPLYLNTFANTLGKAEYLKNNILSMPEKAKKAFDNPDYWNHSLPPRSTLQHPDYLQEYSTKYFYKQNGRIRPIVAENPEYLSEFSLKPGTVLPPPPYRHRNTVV

PKA = PKA (Homo sapiens, UniProt P17612); experiment: In vitro kinase selectivity panel; type: biochemical
PDK1v2 = biological target: T2, PDK1v2 (Homo sapiens, UniProt O15530); experiment: In vitro kinase selectivity panel; type: biochemical
T2 sequence (O15530 1-556): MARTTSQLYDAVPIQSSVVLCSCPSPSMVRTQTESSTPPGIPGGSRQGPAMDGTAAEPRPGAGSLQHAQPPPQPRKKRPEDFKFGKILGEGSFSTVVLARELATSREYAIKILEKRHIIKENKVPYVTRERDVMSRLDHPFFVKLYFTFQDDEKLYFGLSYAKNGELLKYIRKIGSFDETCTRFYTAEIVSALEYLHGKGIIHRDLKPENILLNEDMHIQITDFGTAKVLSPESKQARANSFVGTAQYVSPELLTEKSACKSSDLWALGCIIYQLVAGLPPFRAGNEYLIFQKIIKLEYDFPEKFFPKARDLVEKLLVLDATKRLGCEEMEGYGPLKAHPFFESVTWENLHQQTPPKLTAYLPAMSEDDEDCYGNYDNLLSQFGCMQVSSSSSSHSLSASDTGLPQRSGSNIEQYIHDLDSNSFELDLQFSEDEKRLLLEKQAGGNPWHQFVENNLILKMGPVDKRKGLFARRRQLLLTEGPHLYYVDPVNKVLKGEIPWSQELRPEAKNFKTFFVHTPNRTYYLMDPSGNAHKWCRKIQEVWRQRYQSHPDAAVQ

CaMK2 = CaMK2 (Homo sapiens, UniProt Q13555); experiment: In vitro kinase selectivity panel; type: biochemical
Chain of CaMK2 (Q13555 whole entry): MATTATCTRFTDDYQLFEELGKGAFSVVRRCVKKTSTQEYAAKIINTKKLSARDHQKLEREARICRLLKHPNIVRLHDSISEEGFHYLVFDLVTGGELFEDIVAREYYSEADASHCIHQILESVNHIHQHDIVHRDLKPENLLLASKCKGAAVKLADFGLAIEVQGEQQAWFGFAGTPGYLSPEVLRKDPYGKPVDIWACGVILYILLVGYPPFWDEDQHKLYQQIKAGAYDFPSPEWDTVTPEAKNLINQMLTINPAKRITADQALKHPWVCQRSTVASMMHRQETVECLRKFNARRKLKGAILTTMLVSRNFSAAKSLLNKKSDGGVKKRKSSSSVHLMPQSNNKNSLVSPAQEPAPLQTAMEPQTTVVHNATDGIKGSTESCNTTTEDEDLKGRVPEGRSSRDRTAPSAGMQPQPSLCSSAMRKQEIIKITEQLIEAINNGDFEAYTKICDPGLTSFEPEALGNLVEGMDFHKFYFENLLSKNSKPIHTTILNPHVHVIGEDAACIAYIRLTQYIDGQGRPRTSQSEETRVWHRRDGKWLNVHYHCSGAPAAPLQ

Chain of PIM1 (P11309 whole entry): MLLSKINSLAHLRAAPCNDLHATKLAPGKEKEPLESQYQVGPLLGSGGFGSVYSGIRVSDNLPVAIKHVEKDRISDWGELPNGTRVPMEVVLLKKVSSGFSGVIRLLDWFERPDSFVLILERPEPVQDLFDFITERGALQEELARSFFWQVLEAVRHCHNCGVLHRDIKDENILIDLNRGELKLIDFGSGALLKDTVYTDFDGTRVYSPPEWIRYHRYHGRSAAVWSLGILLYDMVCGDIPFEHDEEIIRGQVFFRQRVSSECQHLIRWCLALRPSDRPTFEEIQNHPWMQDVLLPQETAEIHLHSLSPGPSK
Chain of PDGFRa (P16234 24-1089): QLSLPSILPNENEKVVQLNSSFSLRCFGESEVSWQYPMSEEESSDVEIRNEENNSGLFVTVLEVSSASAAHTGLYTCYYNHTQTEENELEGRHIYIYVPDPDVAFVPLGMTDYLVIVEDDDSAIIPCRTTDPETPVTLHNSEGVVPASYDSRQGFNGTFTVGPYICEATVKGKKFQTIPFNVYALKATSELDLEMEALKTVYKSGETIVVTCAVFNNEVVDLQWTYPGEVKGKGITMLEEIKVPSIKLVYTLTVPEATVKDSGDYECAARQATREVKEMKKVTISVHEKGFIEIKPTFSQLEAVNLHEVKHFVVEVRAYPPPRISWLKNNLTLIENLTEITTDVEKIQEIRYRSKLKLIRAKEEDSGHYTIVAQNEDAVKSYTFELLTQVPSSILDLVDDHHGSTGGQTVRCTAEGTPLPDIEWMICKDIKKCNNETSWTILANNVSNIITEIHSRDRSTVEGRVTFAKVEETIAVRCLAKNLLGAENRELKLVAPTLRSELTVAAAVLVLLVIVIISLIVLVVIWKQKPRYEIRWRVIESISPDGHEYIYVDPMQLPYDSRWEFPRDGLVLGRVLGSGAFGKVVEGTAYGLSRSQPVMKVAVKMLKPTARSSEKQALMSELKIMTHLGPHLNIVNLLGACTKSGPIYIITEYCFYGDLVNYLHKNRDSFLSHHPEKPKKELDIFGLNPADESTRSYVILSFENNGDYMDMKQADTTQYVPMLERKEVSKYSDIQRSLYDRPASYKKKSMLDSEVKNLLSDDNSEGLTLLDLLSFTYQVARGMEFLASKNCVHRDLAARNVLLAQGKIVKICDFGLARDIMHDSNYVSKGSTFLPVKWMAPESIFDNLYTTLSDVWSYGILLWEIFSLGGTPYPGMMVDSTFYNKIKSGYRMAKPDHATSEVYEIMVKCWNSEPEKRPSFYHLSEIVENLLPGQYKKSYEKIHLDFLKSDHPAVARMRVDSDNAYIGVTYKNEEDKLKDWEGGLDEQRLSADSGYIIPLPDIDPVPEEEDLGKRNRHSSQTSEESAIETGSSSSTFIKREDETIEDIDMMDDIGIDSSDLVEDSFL

For `Cn1c2c(c3ccc(Cl)c(Cl)c31)C(C#N)C1(CCN(C(=O)OC(C)(C)C)CC1)NC2=O` (racemic) [Compound 19, (4′RS)-tert-Butyl 7′,8′-Dichloro-4′-cyano-9′-methyl-1′-oxo-1′,2′,4′,9′-tetrahydrospiro[piperidine-4,3′-pyrido[3,4-b]indole]-1-carboxylate], the “activity against PIM1 (in words)” value (PIM1) was “did not exhibit any inhibitory potency”.

With “(4RS)-N-[(7,8-Dichloro-3,3-dimethyl-1-oxo-2,3,4,9-tetrahydro-1H-pyrido[3,4-b]indol-4-yl)methyl]acetamide [Compound 24]” the “activity against PIM1 (in words)” value (PIM1) was “complete loss of activity”.

`CN1CCC2(CC1)NC(=O)c1c(c3ccc(Cl)c(Cl)c3n1C)C2C#N` (racemic) [Compound 17, (4′RS)-7′,8′-Dichloro-1,9′-dimethyl-1′-oxo-1′,2′,4′,9′-tetrahydrospiro[piperidine-4,3′-pyrido[3,4-b]indole]-4′-carbonitrile] was tested, and the “activity against PDGFRα (in words)” value (PDGFRa) was “did not exhibit any significant activity”, the “activity against FLT3 (in words)” value (FLT3) was “did not exhibit any significant activity” and the “activity against KIT (in words)” value (cKIT) was “did not exhibit any significant activity”. For the same compound, the “activity against PIM1 (in words)” value (PIM1) was “highly potent inhibitors”.

In the case of `Cn1c2c(c3ccc(Cl)c(Cl)c31)C(C#N)C1(CCNCC1)NC2=O` (racemic) [Compound 20, (4′RS)-7′,8′-Dichloro-9′-methyl-1′-oxo-1′,2′,4′,9′-tetrahydrospiro[piperidine-4,3′-pyrido[3,4-b]indole]-4′-carbonitrile], the “phosphorylation of 4E-BP1” value [1] is reported as “dose-dependent decrease”, the “activity against PDGFRα (in words)” value (PDGFRa) is reported as “did not exhibit any significant activity” and the IC50 (BTKv2) is reported as over 10 µM. The IC50 (HER4) was over 10 µM, the IC50 (PKA) was under 100 nM and the “activity against FLT3 (in words)” value (FLT3) was “did not exhibit any significant activity”. For the same compound, the IC50 (PDK1v2) was over 10 µM, the IC50 (CaMK2) was under 100 nM and the “activity against KIT (in words)” value (cKIT) was “did not exhibit any significant activity”. The “activity against PIM1 (in words)” value (PIM1) was “highly potent inhibitors”.

In the case of `CCN1CCC2(CC1)NC(=O)c1c(c3ccc(Cl)c(Cl)c3n1C)C2C#N` (racemic) [Compound 18, (4′RS)-7′,8′-Dichloro-1-ethyl-9′-methyl-1′-oxo-1′,2′,4′,9′-tetrahydrospiro[piperidine-4,3′-pyrido[3,4-b]indole]-4′-carbonitrile], the “activity against PIM1 (in words)” value (PIM1) is reported as “highly potent inhibitors”.
